Measured values from patent publication US8920832B2, “Composition for nucleic acid transfection” (Hokkaido System Science Co., Ltd., priority 2006, dated 2014).

How the values were obtained:
HT1080 cells [1] = test: Viable cell counting (WST-1), cell survival rate, HT1080 cells; format: cell-based
Protocol: (§1) Viable cell counting was carried out by means of a Cell Counting Kit (product of Dojindo Laboratories) based on WST-1 assay. […] Thereafter, absorbance was measured at 450 nm. A cell count vs. A450 standard curve was prepared on the basis of a separately prepared dilution series of different numbers of inoculated cells, and the number of viable cells was estimated by use of the standard curve.
(§2) The procedure of Test Example 5 was repeated, except that HeLa cells were replaced with HT1080 cells.
(§3) The procedure of Test Example 7 was repeated, except that HeLa cells were replaced with HT1080 cells.

HeLa cells [2] = test: DNA (pCMV-SPORT-βgal) transfection into HeLa cells: β-gal activity; conditions: for β-gal activity: HeLa
Protocol: (§4) HeLa cells were inoculated into a 96-well plate (7,500 cells/100 μL/well), followed by culturing for about 24 hours. DNA (pCMV-SPORT-βgal) was diluted with a DMEM medium, to thereby prepare a DNA-diluted solution having a DNA concentration of 8 μg/mL (for the case of 200 ng/well). […] The thus-obtained solution or Lipofectamine 2000 as a positive control (product of Invitrogen) was diluted with a DMEM medium so that the amount of the reconstituted liposome solution or Lipofectamine 2000 added to cells was “Amount of liposomes added (μL/well)” shown in Table 9 or 10. Immediately after dilution, the DNA-diluted solution (25 μL) was added to and mixed with the liposome-diluted solution (25 μL), and the mixture was allowed to stand still at room temperature for 30 minutes, to thereby form a DNA/liposome complex. The DNA/liposome complex (50 μL) was added to the inoculated HeLa cells (about 70 to about 90% confluent), to thereby initiate transfection. After culturing at 37° C. and 5% CO2 for one hour, a 10% FBS/DMEM medium (100 μL) was added to the culture liquid, followed by culturing at 37° C. and 5% CO2 for about 21 hours.
The culture supernatant was removed, and the cells were washed with PBS(−). Thereafter, determination of β-galactosidase (hereinafter may be abbreviated as “β-gal”) activity, quantitative determination of protein, and viable cell counting were carried out as described below.
After complete removal of PBS through suction, a lysis buffer (30 μL) was added to the cells, and the mixture was stirred and then allowed to stand still at −80° C. for 30 minutes or longer for freezing. After rapid thawing in a water bath at 37° C., the mixture was again allowed to stand still at −80° C. for 30 minutes or longer for freezing, followed by rapid thawing in a water bath at 37° C. Thereafter, centrifugation was carried out (2,000 g×10 minutes), and the resultant supernatant (sample) (10 μL) was added to a 96-well microplate.
Determination of β-gal activity was carried out by means of a β-gal assay kit (product of Invitrogen). […] A 2-Me-containing cleavage buffer was added (50 μL/well) to the sample or each of the standard-diluted solutions (10 μL), and 4 mg/mL aqueous ONPG solution was added (17 μL/well), followed by incubation at 37° C. for 30 minutes. After completion of incubation, a stop buffer was added (120 μL/well) for termination of reaction, and absorbance was measured at 405 nm.
(§5) Each of the enhancers shown in Table 13 was diluted with a DMEM medium to different concentrations so that the amount of the enhancer finally added to cells was “Enhancer amount (μg/well)” shown in Table 13. […] The thus-diluted liposome solution was added to an equiamount of the above-diluted enhancer, followed by incubation at room temperature for 20 minutes. […] Subsequently, cytotoxicity was evaluated according to the aforementioned scores, and determination of β-gal activity, quantitative determination of protein, and viable cell counting were carried out.

HeLa cells [3] = test: Cytotoxicity score under microscope after DNA transfection, HeLa cells; format: cell-based
Protocol: as §4, §5

HeLa cells [4] = test: Viable cell counting (WST-1), cell survival rate, HeLa cells; format: cell-based
Protocol: as §1

HT1080 cells [5] = test: DNA (pCMV-SPORT-βgal) transfection into HT1080 cells: β-gal activity; format: cell-based
Text: as §2, §3

HT1080 cells [6] = test: Cytotoxicity score under microscope after DNA transfection, HT1080 cells; format: cell-based; design: scale not given here
Text: as §2, §3

[7] = Formulation Example 4 0.38 μL/well, enhancer 0.625 μg/well
[8] = Formulation Example 4 0.38 μL/well, enhancer 1.25 μg/well
[9] = Formulation Example 4 0.38 μL/well, enhancer 2.5 μg/well
[10] = Formulation Example 4 0.38 μL/well, enhancer 5 μg/well
[11] = Formulation Example 4 0.38 μL/well, enhancer 10 μg/well
[12] = Formulation Example 4 0.75 μL/well, enhancer 0.625 μg/well
[13] = Formulation Example 4 0.75 μL/well, enhancer 1.25 μg/well
[14] = Formulation Example 4 0.75 μL/well, enhancer 2.5 μg/well
[15] = Formulation Example 4 0.75 μL/well, enhancer 5 μg/well
[16] = Formulation Example 4 0.75 μL/well, enhancer 10 μg/well
[17] = Formulation Example 4 0.38 μL/well, enhancer 20 μg/well
[18] = Formulation Example 4 0.38 μL/well, enhancer 40 μg/well

Q: With poly L-lysine as the molecule, how does the Cell survival rate (HT1080 cells [1]; [7]) read?
A: 53%

Q: And the Cell survival rate (HT1080 cells [1]; [8])?
A: 72%

Q: What about the Cell survival rate (HT1080 cells [1]; [9]) of the same molecule?
A: 78%

Q: What about the Cell survival rate (HT1080 cells [1]; [10]) of the same molecule?
A: 65%

Q: And the Cell survival rate (HT1080 cells [1]; [11])?
A: 80%

Q: What about the Cell survival rate (HT1080 cells [1]; [12]) of the same molecule?
A: 62%

Q: What about the Cell survival rate (HT1080 cells [1]; [13]) of the same molecule?
A: 75%

Q: What about the Cell survival rate (HT1080 cells [1]; [14]) of the same molecule?
A: 82%

Q: What about the Cell survival rate (HT1080 cells [1]; [15]) of the same molecule?
A: 86%

Q: And the Cell survival rate (HT1080 cells [1]; [16])?
A: 82%

Q: And the β-gal activity (HeLa cells [2]; [7])?
A: 23.9 mU/well

Q: And the β-gal activity (HeLa cells [2]; [8])?
A: 3.4 mU/well

Q: What about the β-gal activity (HeLa cells [2]; [9]) of the same molecule?
A: 0.6 mU/well

Q: And the β-gal activity (HeLa cells [2]; [10])?
A: 0.6 mU/well

Q: What about the β-gal activity (HeLa cells [2]; [11]) of the same molecule?
A: 0.1 mU/well

Q: What about the β-gal activity (HeLa cells [2]; [12]) of the same molecule?
A: 54.1 mU/well

Q: What about the β-gal activity (HeLa cells [2]; [13]) of the same molecule?
A: 6.6 mU/well

Q: And the β-gal activity (HeLa cells [2]; [14])?
A: 1.5 mU/well

Q: And the β-gal activity (HeLa cells [2]; [15])?
A: 0.7 mU/well

Q: What about the β-gal activity (HeLa cells [2]; [16]) of the same molecule?
A: 0.2 mU/well

Q: What about the Cytotoxicity score (HeLa cells [3]; [7]) of the same molecule?
A: 0.5

Q: And the Cytotoxicity score (HeLa cells [3]; [8])?
A: 0.0

Q: And the Cytotoxicity score (HeLa cells [3]; [9])?
A: 0.0

Q: And the Cytotoxicity score (HeLa cells [3]; [10])?
A: 0.5

Q: And the Cytotoxicity score (HeLa cells [3]; [11])?
A: 0.5

Q: What about the Cytotoxicity score (HeLa cells [3]; [12]) of the same molecule?
A: 1.0

Q: And the Cytotoxicity score (HeLa cells [3]; [13])?
A: 0.5

Q: And the Cytotoxicity score (HeLa cells [3]; [14])?
A: 0.0

Q: What about the Cytotoxicity score (HeLa cells [3]; [15]) of the same molecule?
A: 0.0

Q: And the Cytotoxicity score (HeLa cells [3]; [16])?
A: 0.5

Q: And the Cell survival rate (HeLa cells [4]; [7])?
A: 62%

Q: What about the Cell survival rate (HeLa cells [4]; [8]) of the same molecule?
A: 71%

Q: And the Cell survival rate (HeLa cells [4]; [9])?
A: 70%

Q: What about the Cell survival rate (HeLa cells [4]; [10]) of the same molecule?
A: 70%

Q: And the Cell survival rate (HeLa cells [4]; [11])?
A: 76%

Q: And the Cell survival rate (HeLa cells [4]; [12])?
A: 73%

Q: And the Cell survival rate (HeLa cells [4]; [13])?
A: 94%

Q: And the Cell survival rate (HeLa cells [4]; [14])?
A: 99%

Q: And the Cell survival rate (HeLa cells [4]; [15])?
A: 97%

Q: What about the Cell survival rate (HeLa cells [4]; [16]) of the same molecule?
A: 99%

Q: And the β-gal activity (HT1080 cells [5]; [7])?
A: 76.7 mU/well

Q: What about the β-gal activity (HT1080 cells [5]; [8]) of the same molecule?
A: 49.5 mU/well

Q: What about the β-gal activity (HT1080 cells [5]; [9]) of the same molecule?
A: 25.7 mU/well

Q: And the β-gal activity (HT1080 cells [5]; [10])?
A: 12.2 mU/well

Q: What about the β-gal activity (HT1080 cells [5]; [11]) of the same molecule?
A: 8.8 mU/well

Q: What about the β-gal activity (HT1080 cells [5]; [12]) of the same molecule?
A: 98.0 mU/well

Q: And the β-gal activity (HT1080 cells [5]; [13])?
A: 93.8 mU/well

Q: What about the β-gal activity (HT1080 cells [5]; [14]) of the same molecule?
A: 59.2 mU/well

Q: And the β-gal activity (HT1080 cells [5]; [15])?
A: 42.7 mU/well

Q: What about the β-gal activity (HT1080 cells [5]; [16]) of the same molecule?
A: 25.3 mU/well

Q: And the Cytotoxicity score (HT1080 cells [6]; [7])?
A: 2.0

Q: And the Cytotoxicity score (HT1080 cells [6]; [8])?
A: 2.0

Q: And the Cytotoxicity score (HT1080 cells [6]; [9])?
A: 1.0

Q: And the Cytotoxicity score (HT1080 cells [6]; [10])?
A: 0.5

Q: And the Cytotoxicity score (HT1080 cells [6]; [11])?
A: 1.0

Q: What about the Cytotoxicity score (HT1080 cells [6]; [12]) of the same molecule?
A: 2.5

Q: What about the Cytotoxicity score (HT1080 cells [6]; [13]) of the same molecule?
A: 2.0

Q: And the Cytotoxicity score (HT1080 cells [6]; [14])?
A: 1.5

Q: What about the Cytotoxicity score (HT1080 cells [6]; [15]) of the same molecule?
A: 0.5

Q: What about the Cytotoxicity score (HT1080 cells [6]; [16]) of the same molecule?
A: 1.0

Q: CCCC(=O)[O-].[Na+] [sodium butyrate] was tested. Which Cell survival rate (HT1080 cells [1]; [9]) did it give?
A: 55%

Q: What about the Cell survival rate (HT1080 cells [1]; [10]) of the same molecule?
A: 50%

Q: What about the Cell survival rate (HT1080 cells [1]; [11]) of the same molecule?
A: 53%

Q: And the Cell survival rate (HT1080 cells [1]; [17])?
A: 52%

Q: And the Cell survival rate (HT1080 cells [1]; [18])?
A: 62%

Q: What about the β-gal activity (HeLa cells [2]; [9]) of the same molecule?
A: 20.4 mU/well

Q: And the β-gal activity (HeLa cells [2]; [10])?
A: 19.8 mU/well

Q: What about the β-gal activity (HeLa cells [2]; [11]) of the same molecule?
A: 18.7 mU/well

Q: And the β-gal activity (HeLa cells [2]; [17])?
A: 20.9 mU/well

Q: And the β-gal activity (HeLa cells [2]; [18])?
A: 26.7 mU/well

Q: And the “effect of enhancer on nucleic-acid-transfecting performance and cytotoxicity, in words” value (HeLa cells [2]; enhancer added to liposome solution of Formulation Example 4, summary of Tables 13 and 14 (HeLa and HT1080))?
A: excellent effects

Q: And the Cytotoxicity score (HeLa cells [3]; [9])?
A: 1.5

Q: And the Cytotoxicity score (HeLa cells [3]; [10])?
A: 1.0

Q: What about the Cytotoxicity score (HeLa cells [3]; [11]) of the same molecule?
A: 1.0

Q: What about the Cytotoxicity score (HeLa cells [3]; [17]) of the same molecule?
A: 1.5

Q: What about the Cytotoxicity score (HeLa cells [3]; [18]) of the same molecule?
A: 2.0

Q: And the Cell survival rate (HeLa cells [4]; [9])?
A: 67%

Q: And the Cell survival rate (HeLa cells [4]; [10])?
A: 73%

Q: And the Cell survival rate (HeLa cells [4]; [11])?
A: 65%

Q: What about the Cell survival rate (HeLa cells [4]; [17]) of the same molecule?
A: 66%

Q: What about the Cell survival rate (HeLa cells [4]; [18]) of the same molecule?
A: 68%

Q: What about the β-gal activity (HT1080 cells [5]; [9]) of the same molecule?
A: 45.0 mU/well

Q: And the β-gal activity (HT1080 cells [5]; [10])?
A: 40.2 mU/well

Q: What about the β-gal activity (HT1080 cells [5]; [11]) of the same molecule?
A: 37.3 mU/well

Q: What about the β-gal activity (HT1080 cells [5]; [17]) of the same molecule?
A: 40.3 mU/well

Q: What about the β-gal activity (HT1080 cells [5]; [18]) of the same molecule?
A: 45.6 mU/well

Q: What about the Cytotoxicity score (HT1080 cells [6]; [9]) of the same molecule?
A: 1.5

Q: And the Cytotoxicity score (HT1080 cells [6]; [10])?
A: 1.5

Q: What about the Cytotoxicity score (HT1080 cells [6]; [11]) of the same molecule?
A: 2.0

Q: And the Cytotoxicity score (HT1080 cells [6]; [17])?
A: 2.5

Q: What about the Cytotoxicity score (HT1080 cells [6]; [18]) of the same molecule?
A: 3.0
